Patent US20050282869A1, “Use of a compound in the treatment of sleep disorders and the like, in providing refreshedness on waking and a method for the treatment of grogginess therewith” (priority 2001, published 2005)

Key:
[1] = tested on: patients with temporary sleep disturbance; experiment: Clinical trial: Karolinska 9-point sleepiness scale; type: in vivo, human; details: for Karolinska 9-point scale (a) I feel extremely alert, very alert or alert, %: scales 1, 2 or 3
Description: (§1) The efficacy of triprolidine in enabling a patient to feel refreshed or alert upon waking after taking triprolidine prior to sleeptime was investigated using patients with a history of sleep disorders and utilising triprolidine prepared in accordance with example 3.
(§2) The study herein utilised the following determination methods:— • (a) Karolinska scale as defined in: Int. J. Neuroscience 52 29-37 (1990); and validation: Sleep 17 (3) 236-41 (1994) • (b) Loughborough Sleep log as defined in: Sleep 17 (2)146-159 (1994); and Sleep 18 (2) 127-134 (1995) • (c) Actimetry—AW4 actimeters (Cambridge Neurotechnology) were worn continuously throughout the study. A button was pressed at night when the subject desired to go to sleep and again in the morning upon waking. The results of the actimeter study were analysed in the manner defined by Home et al (Sleep, 17(2); 146-159).
(§3) A multiple-dose, placebo-controlled, parallel-group, double-blind, randomised study investigating the effects of 2.5 mg and 5 mg triprolidine in patients with temporary sleep disturbance.
(§4) Male and Female candidates aged 18 years and above were recruited to one of five research centres by means of local advertising. Candidates were screened by means of a telephone questionnaire and selected candidates invited for interview at the research centre. Key inclusion criteria used to select candidates for the study were: • A record of poor sleep at least 2 nights per week • A record of poor sleep for at least 1 week but not more than 3 months • Sleep disturbance not caused by underlying disease • No excess use of alcohol or drugs • Sleep disturbance affected daytime functioning
(§5) The candidates came to the research centre on Thursday or Friday and were fitted with a wrist actimeter (AW4 from Cambridge Technology) to establish a baseline measure for SDI and were provided with diary cards to record subjective assessments for the Loughborough Sleep Log and the Karolinska Sleepiness Scale. They returned to the investigational site on the Monday and were issued with the study compositions (2.5 mg triprolidine, 5 mg triprolidine or placebo). The investigator telephoned a central randomisation centre where the subject was randomised to a particular treatment group using a dynamic balanced randomisation algorithm. The subject was given three doses of their allocated study medication and instructed to take a single dose of two tablets 20 minutes before they intended to go to sleep on three consecutive evenings, commencing that evening. The diary cards for the Loughborough Sleep Log and Karolinska Sleepiness Scale were asked to be completed on waking.
A daytime sleepiness assessment was also made 20 minutes, 2 hours and 4 hours after awaking on the Karolinska 9-point scale, ie. the sleepiness scale.
(§6) 198 candidates completed the study, of whom 178 provided evaluable data. (61 placebo, 60 on 2.5 mg triprolidine and 57 on 5 mg triprolidine. The subjects on 2.5 mg dose took one tablet and placebo those on 5 mg dose took 2×2.5 mg tablets. The subjects on placebo took a dose to match the active treatments (2 tablets).
(§7) Generally the treatment groups were well balanced in terms of the demographic data. Unless otherwise mentioned all group data was analysed using ANOVA. In two cases, namely, how the patient felt 15 minutes after awakening in the Loughborough Sleep Log and the Karolinska Sleepiness Scale at 20 minutes, the two variables were analysed using ANCOVA by including the weekend and the mean of Friday/Saturday/Sunday night as a covariate. The method was a closed test procedure (Williams' test). Each of the tests were to be conducted at the 5% level. The analysis of the secondary endpoints was similarly conducted using the Student's t-tests on parameter estimates taken from the analysis of variance model presented above.
Karolinska's sleepiness scale is set out below and the results for placebo, 2.5 and 5.0 mg doses of triprolidine are shown in tables 4 and 5. […]

[2] = tested on: volunteers; details: single doses 10 mg or 20 mg sustained release at bedtime; cited from earlier work
[3] = tested on: patients with temporary sleep disturbance; experiment: Clinical trial: wrist actimetry (SDI, time to sleep onset); type: in vivo, human
Description: as §1, §2
SDI % was calculated as follows:— [formula]
This is the measure of: • 1. The length of time it took to fall asleep • 2. Any awakenings throughout the sleep period • Expressed as a % of total time spent in bed. Study Objectives • To evaluate the effects of two doses of triprolidine compared with placebo. Study Design
as §3, §4, §5, §6
The study design used 3 groups. On average, the number of individuals in each of the 3 groups (placebo, 2.5 mg triprolidine and 5 mg triprolidine) was 60±10 patients.
In the trial, patients were tested during a seven day period and the results have been analysed for a mean of three days in the middle of this period. The effects of triprolidine at dose level 2.5 mg and 5.0 mg are compared with placebo in table 1.
Generally the treatment groups were well balanced in terms of the demographic data. Unless otherwise mentioned all group data was analysed using ANOVA. […]

[4] = tested on: patients with temporary sleep disturbance; experiment: Clinical trial: Loughborough sleep log questionnaire; type: in vivo, human; details: for Loughborough Sleep Log: Awoke Very Refreshed or Refreshed Responses, %: % of patients
Description: as §1, §2, §3, §4, §5
Candidates were required to complete a questionnaire 15 minutes after awaking on the feeling of refreshedness assessed on a 5-point scale, the Loughborough sleep log.
as §6
as §7, with “above. […]” for “above.”

[5] = 2.5 mg, mean of the 3 nights, p<0.05
[6] = both treatments (2.5 mg and 5 mg), every treatment night

Cc1ccc(/C(=C\CN2CCCC2)c2ccccn2)cc1 [triprolidine]
(b) I feel (i) sleepy, [and need to make] some effort or (ii) very sleepy, a great effort to keep awake, % ([1]; 2.5 mg dose, Wednesday, Karolinska scales 8 and 9, on waking): 6.5% | Karolinska 9-point scale (a) I feel extremely alert, very alert or alert, % ([1]; 2.5 mg dose, Wednesday, on waking): 21.0% | percentage of people feeling alert, very alert or extremely alert on waking vs placebo (Karolinska log) ([1]; 2.5 mg, mean of the 3 nights): greater percentage | percentage of people feeling sleepy or very sleepy on waking vs placebo (Karolinska log) ([1]; 2.5 mg, mean of the 3 nights): lower percentage | residual hangover effects/morning grogginess ([1]; 2.5 mg, mean of the 3 nights): no evidence of residual hangover effects/morning grogginess | Karolinska 9-point scale (a) I feel extremely alert, very alert or alert, % ([1]; 5 mg dose, Monday, on waking): 6.3% | Karolinska 9-point scale (a) I feel extremely alert, very alert or alert, % ([1]; 5 mg dose, Tuesday, on waking): 9.5% | sleep onset latency compared with placebo [2]: did not significantly alter | total sleep time compared with placebo [2]: no effect | wakefulness during sleep compared with placebo [2]: no effect | SDI (%) (Sleep latency onset and Quality of sleep) (Actimeter), Mean ([3]; 2.5 mg dose 20 min before sleep, Mon): 11.33% | SDI (%) (Sleep latency onset and Quality of sleep) (Actimeter), Mean ([3]; 2.5 mg dose, Mean of 3): 11.56% | TTSO (min) (Time to Sleep onset) (Actimeter), Mean ([3]; 2.5 mg dose, Mean of 3): 15.53 min | TTSO (min) (Time to Sleep onset) (Actimeter), Mean ([3]; 2.5 mg dose, Mon): 16.22 min | SDI (%) (Sleep latency onset and Quality of sleep) (Actimeter), Mean ([3]; 2.5 mg dose, Tues): 12.15% | TTSO (min) (Time to Sleep onset) (Actimeter), Mean ([3]; 2.5 mg dose, Tues): 15.62 min | SDI (%) (Sleep latency onset and Quality of sleep) (Actimeter), Mean ([3]; 2.5 mg dose, Wed): 11.2% | SDI compared to placebo ([3]; 2.5 mg, mean of the 3 nights, p<0.01): significantly reduced | sleep latency onset compared to placebo [3, 5]: reduced | SDI (%) (Sleep latency onset and Quality of sleep) (Actimeter), Mean ([3]; 5 mg dose, Mean of 3): 12.23% | TTSO (min) (Time to Sleep onset) (Actimeter), Mean ([3]; 5 mg dose, Mean of 3): 16.93 min | SDI (%) (Sleep latency onset and Quality of sleep) (Actimeter), Mean ([3]; 5 mg dose, Mon): 11.72% | TTSO (min) (Time to Sleep onset) (Actimeter), Mean ([3]; 5 mg dose, Mon): 16.16 min | SDI (%) (Sleep latency onset and Quality of sleep) (Actimeter), Mean ([3]; 5 mg dose, Tues): 12.71% | TTSO (min) (Time to Sleep onset) (Actimeter), Mean ([3]; 5 mg dose, Tues): 17.88 min | SDI (%) (Sleep latency onset and Quality of sleep) (Actimeter), Mean ([3]; 5 mg dose, Wed): 11.81% | TTSO (min) (Time to Sleep onset) (Actimeter), Mean ([3]; 5 mg dose, Wed): 16.36 min | SDI compared with placebo [3, 6]: reduced | sleep latency onset compared with placebo [3, 6]: reduced | no of times woke up (Loughborough sleep log), Mean ([4]; 2.5 mg dose, Mean of 3): 1.22 | time to fall asleep (min) (Loughborough sleep log), Mean ([4]; 2.5 mg dose, Mean of 3): 23.93 min | no of times woke up (Loughborough sleep log), Mean ([4]; 2.5 mg dose, Mon): 1.18 | time to fall asleep (min) (Loughborough sleep log), Mean ([4]; 2.5 mg dose, Mon): 23.67 min | Loughborough Sleep Log: Awoke Very Refreshed or Refreshed Responses, % ([4]; 2.5 mg dose, Monday): 23% | no of times woke up (Loughborough sleep log), Mean ([4]; 2.5 mg dose, Tues): 1.37 | time to fall asleep (min) (Loughborough sleep log), Mean ([4]; 2.5 mg dose, Tues): 24.44 min | Loughborough Sleep Log: Awoke Very Refreshed or Refreshed Responses, % ([4]; 2.5 mg dose, Tuesday): 23% | no of times woke up (Loughborough sleep log), Mean ([4]; 2.5 mg dose, Wed): 1.11 | time to fall asleep (min) (Loughborough sleep log), Mean ([4]; 2.5 mg dose, Wed): 20.95 min | feeling of refreshedness 15 minutes after waking vs placebo (Loughborough sleep log) [4, 5]: more refreshed | no of times woke up (Loughborough sleep log), Mean ([4]; 5 mg dose, Mean of 3): 1.42 | time to fall asleep (min) (Loughborough sleep log), Mean ([4]; 5 mg dose, Mean of 3): 26.5 min | no of times woke up (Loughborough sleep log), Mean ([4]; 5 mg dose, Mon): 1.49 | time to fall asleep (min) (Loughborough sleep log), Mean ([4]; 5 mg dose, Mon): 22.02 min | no of times woke up (Loughborough sleep log), Mean ([4]; 5 mg dose, Tues): 1.42 | time to fall asleep (min) (Loughborough sleep log), Mean ([4]; 5 mg dose, Tues): 32.08 min | Loughborough Sleep Log: Awoke Very Refreshed or Refreshed Responses, % ([4]; 5 mg dose, Tuesday): 8.2% | no of times woke up (Loughborough sleep log), Mean ([4]; 5 mg dose, Wed): 1.39 | time to fall asleep (min) (Loughborough sleep log), Mean ([4]; 5 mg dose, Wed): 24.24 min | Loughborough Sleep Log: Awoke Very Refreshed or Refreshed Responses, % ([4]; 5 mg dose, Wednesday): 14.8% | individuals with response of sleeping extremely well or very well (morning log of the Loughborough sleep log) ([4]; dose not stated): over 35%
